According to ChEMBL document CHEMBL1145653, “The alkaloids of Corydalis meifolia” (J Nat Prod, 1983):

Key:
Ileum [1] = experiment: Spasmolytic activity against guinea pig ileum assessed as inhibition of spasmogen-induced contraction at 10 ug; format: functional, Cavia porcellus
Ileum [2] = experiment: Spasmolytic activity against guinea pig ileum assessed as inhibition of spasmogen-induced contraction at 50 ug; format: functional, Cavia porcellus

Row | SMILES | inhibition (INH) (Ileum [1]) [%] | inhibition (INH) (Ileum [2]) [%]
1 | COc1cc2c(cc1OC)[C@H]1[C@@H](C)c3ccc4c(c3CN1CC2)OCO4 [CAVIDINE] | 84 | 100
2 | COc1cc2c(cc1OC)-c1c(C)c3ccc4c(c3c[n+]1CC2)OCO4.[Cl-] [DEHYDROCAVIDINE] | 20 | 40
3 | COc1cc2c(cc1OC)[C@@H]([C@H]1OC(=O)c3c1ccc1c3OCO1)N(C)CC2 [CORLUMINE] | 0 | 50
4 | COc1cc2c(cc1OC)[C@]1([C@H](O)c3ccc4c(c3[C@@H]1O)OCO4)N(C)CC2 [YEMHUSOMINE] | 17 | 52
